Patent US5464825A, “Raising glutathione equivalent levels using N-acyl glutathione monoesters” (Cornell Research Foundation, Inc., priority 1994, dated 1995)
Where two headings read alike, the source gives them in different places. Blank lines part the entries; values can stand above or below the compound they belong to. *1 amine or outer side, *2 acyl side, *3 side chain or, on linkers, in order; H or OH if unused. Where a SMILES comes first, the peptide text is derived from it. [ ]: non-standard residue; d: D form. γGlu = O=C(O)[C@H](CCC(=O)[*:2])N[*:1]

[1] = kidney, 1 hour after 10 mmol/kg i.p., fasted BSO treated mice
[2] = kidney, 2.5 hours after 10 mmol/kg i.p., fasted BSO treated mice
[3] = liver, 1 hour after 10 mmol/kg i.p., fasted BSO treated mice
[4] = liver, 2.5 hours after 10 mmol/kg i.p., fasted BSO treated mice
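Note: mice fasted 18 h, given 10 mM BSO in drinking water plus BSO 2 mmol/kg 13 h and 3 h before dosing, controls got 0.9% NaCl, mean ± SD.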

Description: The N-acetyl GSH monoethyl ester was used. A solution of N-acetyl GSH monoester was prepared in aseptic water. Mice weighing 18 to 25 grams, obtained from Taconic Farms, Inc., (TAC:(SWFBR)), were fasted for 18 hours before injection with NAGEE. At the time of fasting, the drinking water contains 10 mM L-buthionine-SR-sulfoximine (BSO). All mice are injected with L-buthionine-SR-sulfoximine (BSO) (2 millimoles per kilogram; intraperitoneally) 13 hours before NAGEE injection. The mice are injected again with L-buthionine-SR-sulfoxminie (BSO) (2 millimoles per kg; subcutaneously) 3 hours prior to NAGEE injection. NAGEE or GSH are administered intraperitoneally (10 mmol/kg; the pH of the solution is adjusted to about 7 with sodium hydroxide). The GSH solution also contains ethanol at 10 mmol/kg. Control mice are given equivalent volumes of 0.9% sodium chloride. The mice were then injected intraperitoneally with the N-acetyl GSH monoethyl ester in a dose of 10 millimoles per kilogram. […] Using groups of 4 or 5 mice each, values are given as means plus or minus S.D.

Structure (SMILES): N[C@@H](CCC(=O)N[C@@H](CS)C(=O)NCC(=O)O)C(=O)O [GSH, L-γ-glutamyl-L-cysteinylglycine, reference compound]
effect on glutathione levels in the kidney as compared to the controls (in words) (kidney, 10 mmol/kg i.p., fasted BSO treated mice): only a slight effect | GSH level, kidney [1]: 1.9 µmol/g | GSH level, kidney [2]: 1.01 µmol/g | GSH level, liver [3]: 1.38 µmol/g | GSH level, liver [4]: 0.45 µmol/g

levels of GSH monoethyl ester, NAGEE and NAG found (in words) (kidney, 10 mmol/kg i.p.): substantial levels | GEE level, kidney [1]: 0.92 µmol/g | NAG level, kidney [1]: 1.43 µmol/g | NAGEE level, kidney [1]: 5.54 µmol/g | GEE level, kidney [2]: 0.52 µmol/g | NAG level, kidney [2]: 0.79 µmol/g | NAGEE level, kidney [2]: 2.10 µmol/g | GSH mono-ethyl ester found in the liver (in words) (liver, 10 mmol/kg i.p.): a little | GEE level, liver [3]: 0.18 µmol/g | NAG level, liver [3]: 4.80 µmol/g | NAGEE level, liver [3]: 8.85 µmol/g | GEE level, liver [4]: 0.15 µmol/g | NAG level, liver [4]: 3.38 µmol/g | NAGEE level, liver [4]: 2.93 µmol/g | liver levels of N-acetyl GSH (in words) (liver, at 1 and 2.5 hours, 10 mmol/kg i.p.): increased dramatically
Structure (SMILES): CCOC(=O)CNC(=O)[C@H](CS)NC(=O)CC[C@H](NC(C)=O)C(=O)O [NAGEE, N-acetyl glutathione monoethyl ester] (Ac-[γGlu]-Cys-Gly-OEt)
GSH equivalents total, kidney [1]: 10.51 µmol/g | GSH level, kidney [1]: 1.6 µmol/g | GSH equivalents total, kidney [2]: 5.67 µmol/g | GSH level, kidney [2]: 2.3 µmol/g | GSH level of the kidney (in words, FIGS. 1 and 2) (kidney, 2.5 hours after administration, 10 mmol/kg i.p.): increased substantially | GSH level of the kidney (in words) (kidney, at 5 hours, 10 mmol/kg i.p.): declined | GSH equivalents total, liver [3]: 14.28 µmol/g | GSH level, liver [3]: 0.45 µmol/g | GSH equivalent total, liver [4]: 7.17 µmol/g | GSH level, liver [4]: 0.71 µmol/g | liver levels of GSH (in words) (liver, at 2.5 hours, 10 mmol/kg i.p.): increased moderately
